# Experimental data published in paper PMC6920875, “Dithiocarbamate as a Valuable Scaffold for the Inhibition of Metallo-β-Lactmases” (Biomolecules, 2019).
# pKi: −log10 of the molar value.
# What was measured:
# [1] = biological target: T1, IMP-1 (Serratia marcescens, UniProt P52699); test: biochemical; details: read-out: inhibition against IMP-1
# T1 construct: made in house; host or cells: E. coli BL21 (DE3), plasmid pET26b-IMP-1
# Method: (§1) The dithiocarbamates, MβLs and substrates samples were prepared with 30 mM Tris, pH 7.0. […] Enzymes and inhibitors were pre-incubated for 5 min before adding substrate. […] The IC50 values were nonlinearly fitted by plotting the average percentage inhibition against inhibitor concentration. The inhibition modes of DC1 to ImiS, NDM-1 and L1 were assayed by generating Lineweaver–Burk plots, and Ki values were obtained by fitting initial velocity versus substrate concentration at each inhibitor concentration, using SigmaPlot 12.0 (Systat Software Inc., San Jose, CA, USA).
# (§2) To evaluate the inhibitory activity of the dithiocarbamates, we over-expressed and purified MβLs NDM-1, VIM-2 and IMP-1 (B1), ImiS (B2), and L1 (B3) from three subclasses as previously reported. The inhibition experiments were performed with an Agilent UV8453 spectrometer. […] The concentrations of inhibitors were varied between 0 and 200 μM. The initial reaction rates were determined in the absence and presence of inhibitors in triplicate, and the generated average values were recorded.
# [2] = biological target: T2, L1 (Stenotrophomonas maltophilia, UniProt P52700); test: biochemical; details: read-out: inhibition against L1
# T2 construct: made in house; host or cells: E. coli BL21 (DE3), plasmid pET-26b-L1
# T2 sequence (P52700 34-290): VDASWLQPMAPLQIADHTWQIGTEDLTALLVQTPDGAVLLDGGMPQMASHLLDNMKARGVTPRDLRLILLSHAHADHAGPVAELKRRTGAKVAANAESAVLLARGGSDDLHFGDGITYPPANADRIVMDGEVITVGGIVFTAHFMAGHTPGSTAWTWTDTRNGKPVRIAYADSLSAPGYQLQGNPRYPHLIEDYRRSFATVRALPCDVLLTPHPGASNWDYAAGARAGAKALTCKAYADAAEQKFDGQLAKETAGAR
# Method: as §1, §2
# [3] = biological target: T3, NDM-1 (Klebsiella pneumoniae, UniProt C7C422); test: biochemical; details: read-out: inhibition against NDM-1
# T3 construct: made in house; host or cells: E. coli BL21 (DE3), plasmid pET26b-NDM-1
# T3 sequence (C7C422 29-270 limits assumed): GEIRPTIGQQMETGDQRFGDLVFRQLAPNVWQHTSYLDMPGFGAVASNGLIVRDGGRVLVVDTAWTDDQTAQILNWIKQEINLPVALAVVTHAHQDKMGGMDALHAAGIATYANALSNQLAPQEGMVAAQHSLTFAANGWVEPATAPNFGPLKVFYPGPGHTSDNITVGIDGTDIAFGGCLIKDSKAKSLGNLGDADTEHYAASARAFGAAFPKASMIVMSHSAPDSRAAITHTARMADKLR
# Method: as §1, §2
# [4] = biological target: T2, L1; test: Inhibition kinetics, Lineweaver–Burk plots; format: biochemical
# Method: as §1
# (§3) To further identify the inhibition mode of the DCs against MβLs, we performed inhibition kinetics of NDM-1, ImiS and L1 by DC1, at different concentrations, with different substrate concentrations. […] Enzyme and inhibitors were pre-incubated for 5 min before starting the kinetic assays. All experimental hydrolytic rates of substrates were determined in triplicate. The inhibition mode of dithiocarbamates on MβLs was identified by generating Lineweaver–Burk plots, and Ki values were gained by fitting the initial velocity versus substrate concentration at each inhibitor concentration, using SigmaPlot 12.0.
# [5] = biological target: T3, NDM-1; test: Inhibition kinetics, Lineweaver–Burk plots; format: biochemical
# Method: as §1, §3
# [6] = biological target: T2, L1; test: Isothermal titration calorimetry (ITC) of MβL-catalysed substrate hydrolysis; format: biochemical; details: 100 nM enzyme, 1 mM cefazolin, inhibitor 0-200 μM, 25 °C
# Method: (§4) Isothermal titration calorimetry (ITC) assays were performed on a Malvern MicroCal iTC 200 instrument (Malvern Instruments, Malvern, UK) at 25 °C, by a single injection mode. During ITC experiments the reference cell was filled with degassed water. The MβLs, substrates, and inhibitor DC1 were prepared with 50 mM Tris, pH 7.0. The concentration of MβLs used was in the range 100–200 nM, concentration of substrate was 1 mM, and concentrations of DC1 were varied between 0 and 200 µM. Before starting the measurement, the enzyme was pre-incubated with different concentrations of DC1 for 5 min, and then delivered into the sample cell (210 µL). The hydrolysis reaction in the absence of inhibitors was also determined as a control. The stirring rate of the syringe was set to 750 rpm. The system was equilibrated at the desired 25 °C. […] Heat flow was recorded as a function of time. Data were collected every 1 s until the signal reached the baseline and continued to be recorded for the length of time necessary to generate the final baseline.
# (§5) Isothermal titration calorimetry (ITC) was also employed, to identify the inhibition of the dithiocarbamates on MβLs and study their thermodynamic behaviour. […]
# [7] = biological target: T3, NDM-1; test: as above; format: biochemical; details: 150 nM enzyme, 1 mM cefazolin, inhibitor 0-200 μM, 25 °C
# Method: as §4, §5
# [8] = biological target: T4, ImiS (Aeromonas veronii, UniProt O31272); test: as above; format: biochemical, Aeromonas veronii bv. sobria; details: 100 nM enzyme, 1 mM imipenem, inhibitor 0-200 μM, 25 °C
# T4 construct: made in house; host or cells: E. coli BL21 (DE3), plasmid pET-26b-ImiS
# T4 sequence (O31272 28-255 limits assumed): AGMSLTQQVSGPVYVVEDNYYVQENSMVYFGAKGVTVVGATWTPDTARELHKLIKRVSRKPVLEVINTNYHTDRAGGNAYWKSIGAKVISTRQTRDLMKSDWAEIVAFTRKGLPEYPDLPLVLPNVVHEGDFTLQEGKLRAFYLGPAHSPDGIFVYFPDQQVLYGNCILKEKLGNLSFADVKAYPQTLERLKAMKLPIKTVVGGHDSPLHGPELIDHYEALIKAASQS
# Method: as §4, §5
# [9] = biological target: T3, NDM-1; test: Time-dependence inhibition experiment, residual activity; format: biochemical; details: 13 nM NDM-1 incubated with inhibitor at its IC50 for 8 h
# T1 sequence (P52699 19-246 limits assumed): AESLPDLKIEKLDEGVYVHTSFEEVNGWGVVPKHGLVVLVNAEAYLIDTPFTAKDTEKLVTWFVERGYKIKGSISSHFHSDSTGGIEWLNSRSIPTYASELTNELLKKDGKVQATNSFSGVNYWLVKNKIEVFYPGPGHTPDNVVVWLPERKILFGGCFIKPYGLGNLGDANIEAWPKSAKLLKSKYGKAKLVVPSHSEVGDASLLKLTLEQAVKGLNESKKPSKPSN
smiles,measurement,setting,value
O=C(NNC(=S)[S][K])c1ccccc1O [DC1],inhibition at 10 µM,[1],> 90%
same,inhibition at 8 µM,[2],> 90%
same,inhibition at 20 µM,[3],> 90%
same,inhibition mode against L1,[4]; Lineweaver–Burk plots,partially mixed inhibition
same,pKi,"[4]; read-out: Ki against L1, cefazolin 20-120 µM, inhibitor 0-20 μM, SigmaPlot fit",5.30
same,inhibition mode against NDM-1,[5]; Lineweaver–Burk plots,partially mixed inhibition
same,pKi,"[5]; read-out: Ki against NDM-1, cefazolin 20-120 µM, inhibitor 0-20 μM, SigmaPlot fit",6.54
same,reversibility of inhibition of L1 by ITC (total heat Q constant),[6],reversible
same,reversibility of inhibition of NDM-1 by ITC (total heat Q constant),[7],reversible
same,reversibility of inhibition of ImiS by ITC (total heat Q constant),[8],reversible
same,time dependence of NDM-1 inhibition (residual activity),[9],no time-dependent inhibition
